# Experimental data: ChEMBL document CHEMBL1201862, “PubChem BioAssay data set” (2004)
# The source made the active and inactive calls.
# Tests used:
# [1] = molecular target: DNA dC->dU-editing enzyme APOBEC-3G (Homo sapiens, UniProt Q9HC16); assay type: functional;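 also: Dose-response counterscreen measuring inhibition of APOBEC3G DNA deaminase activity, run while confirming APOBEC3A inhibitors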
# [2] = molecular target: Neuropeptides B/W receptor type 1 (Homo sapiens, UniProt P48145); assay: Fluorescence-based dose response cell-based high throughput screening assay to identify antagonists of the G-protein coupled receptor 7 (GPR7). [Related pubchem assays: 1952 (Screening assay (GPR7 antagonists).), 1880 (Summary AID.)]; assay type: functional
# Chain of Neuropeptides B/W receptor type 1 (P48145 whole entry): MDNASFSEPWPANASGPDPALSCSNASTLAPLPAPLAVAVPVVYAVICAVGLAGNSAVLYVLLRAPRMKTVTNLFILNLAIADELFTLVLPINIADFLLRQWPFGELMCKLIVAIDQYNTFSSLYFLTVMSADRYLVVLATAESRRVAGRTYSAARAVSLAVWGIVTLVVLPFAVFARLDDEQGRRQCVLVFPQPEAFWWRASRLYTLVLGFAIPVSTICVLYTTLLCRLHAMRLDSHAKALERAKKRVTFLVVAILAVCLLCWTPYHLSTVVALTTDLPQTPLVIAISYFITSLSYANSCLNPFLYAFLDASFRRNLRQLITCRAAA
# [3] = molecular target: DNA dC->dU-editing enzyme APOBEC-3A (Homo sapiens, UniProt P31941); assay: Dose Response confirmation of small molecule APOBEC3A DNA Deaminase Inhibitors via a fluorescence-based single-stranded DNA deaminase assay. [Related pubchem assays (depositor defined):AID493011, AID493024]; assay type: functional
# Chain of DNA dC->dU-editing enzyme APOBEC-3A (P31941 whole entry): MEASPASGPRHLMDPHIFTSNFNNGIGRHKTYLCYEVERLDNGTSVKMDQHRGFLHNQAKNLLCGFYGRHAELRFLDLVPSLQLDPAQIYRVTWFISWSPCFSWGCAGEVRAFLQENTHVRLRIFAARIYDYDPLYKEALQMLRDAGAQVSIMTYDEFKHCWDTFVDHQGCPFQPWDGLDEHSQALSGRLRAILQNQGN
# [4] = molecular target: Melanin-concentrating hormone receptor 1 (Homo sapiens, UniProt Q99705); assay: Fluorescence-based counterscreen for antagonists of the G-protein coupled receptor 7 (GPR7): cell-based high throughput dose response assay to identify antagonists of the melanin-concentrating hormone receptor 1 (MCHR1).; assay type: functional
# Chain of Melanin-concentrating hormone receptor 1 (Q99705 whole entry): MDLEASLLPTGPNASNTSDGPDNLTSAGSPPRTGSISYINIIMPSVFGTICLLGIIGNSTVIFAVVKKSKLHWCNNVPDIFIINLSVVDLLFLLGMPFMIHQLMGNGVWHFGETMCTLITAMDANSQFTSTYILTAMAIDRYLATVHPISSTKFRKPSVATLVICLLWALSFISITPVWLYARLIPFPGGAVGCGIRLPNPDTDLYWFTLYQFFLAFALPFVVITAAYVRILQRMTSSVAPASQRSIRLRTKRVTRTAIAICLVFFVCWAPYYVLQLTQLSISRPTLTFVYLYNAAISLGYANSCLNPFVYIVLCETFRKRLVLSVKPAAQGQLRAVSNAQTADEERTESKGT
# [5] = molecular target: Lysosomal acid glucosylceramidase (Homo sapiens, UniProt P04062); assay: Dose response cell-based high throughput screening assay to identify enhancers of beta-glucosidase activity. [Related pubchem assays: 784 ]; assay type: functional
# Chain of Lysosomal acid glucosylceramidase (P04062 whole entry): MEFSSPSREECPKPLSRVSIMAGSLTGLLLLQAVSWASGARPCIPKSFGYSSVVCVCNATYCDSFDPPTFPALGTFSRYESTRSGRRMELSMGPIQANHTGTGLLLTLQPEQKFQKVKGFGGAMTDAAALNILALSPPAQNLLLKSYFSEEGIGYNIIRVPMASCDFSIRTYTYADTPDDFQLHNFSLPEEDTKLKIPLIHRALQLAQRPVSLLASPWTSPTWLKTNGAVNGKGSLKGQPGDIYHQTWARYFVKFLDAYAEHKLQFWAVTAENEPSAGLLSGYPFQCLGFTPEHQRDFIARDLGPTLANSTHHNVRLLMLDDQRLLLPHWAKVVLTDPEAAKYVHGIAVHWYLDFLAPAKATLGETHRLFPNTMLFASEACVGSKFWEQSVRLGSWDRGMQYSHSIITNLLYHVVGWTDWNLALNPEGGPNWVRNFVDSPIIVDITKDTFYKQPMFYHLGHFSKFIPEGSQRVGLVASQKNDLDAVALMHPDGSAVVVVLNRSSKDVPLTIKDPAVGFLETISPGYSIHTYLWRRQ
# Streptococcus = assay: Group A Streptococcus viability loss, dose response, counter-screen for streptokinase expression inhibitor project, luminescence, BacTiterGlo (AID 1915); assay type: functional, organism-based;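 also: potency for reduction of bacterial viability or growth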
# [6] = system: Streptococcus sp. 'group A'; assay: growth inhibition of control SK(-) GAS strain, dose response, counter-screen for streptokinase expression inhibitor project, luminescence, kanamycin, BacTiterGlo, confirmation (AID 1900); assay type: functional, organism-based
# HEK293 [7] = assay: Fluorescence-based counterscreen for potentiators or agonists of NPY-Y1: cell-based high-throughput dose response assay for inhibitors of cyclic nucleotide gated ion channel (CNGC) activity. In this assay, the parental HEK293 cell line transfected with a cyclic-nucleotide gated ion channel (CNGC)-based cAMP sensor is used to measure inhibition of isoproterenol-induced CNGC …; assay type: functional; settings: Homo sapiens
# [8] = molecular target: Serine/threonine-protein phosphatase (Homo sapiens, UniProt Q9BPW0); assay: Counterscreen for inhibitors of PP1: fluorescence-based biochemical high throughput dose response assay to identify inhibitors of Protein Phosphatase 5 (PP5). [Related pubchem assays: 2034 (Summary (PP5 inhibitors)), 1987 (PP5 inhibitors in singlate), 2235 (PP1 inhibitors in singlate)]
# Chain of Serine/threonine-protein phosphatase (Q9BPW0 whole entry): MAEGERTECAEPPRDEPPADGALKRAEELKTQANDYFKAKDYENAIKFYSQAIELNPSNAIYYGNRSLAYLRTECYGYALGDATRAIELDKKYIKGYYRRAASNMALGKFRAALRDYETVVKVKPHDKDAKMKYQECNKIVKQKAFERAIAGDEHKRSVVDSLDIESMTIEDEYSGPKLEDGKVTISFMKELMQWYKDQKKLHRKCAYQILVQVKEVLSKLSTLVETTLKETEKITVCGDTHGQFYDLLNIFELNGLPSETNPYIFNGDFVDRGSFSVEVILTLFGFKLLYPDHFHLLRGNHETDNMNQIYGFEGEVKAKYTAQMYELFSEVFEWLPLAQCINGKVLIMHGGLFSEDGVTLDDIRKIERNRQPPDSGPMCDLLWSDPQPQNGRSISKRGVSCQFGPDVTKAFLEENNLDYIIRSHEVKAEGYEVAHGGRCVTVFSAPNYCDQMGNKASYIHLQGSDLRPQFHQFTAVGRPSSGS
# [9] = molecular target: Serine/threonine-protein phosphatase PP1-alpha catalytic subunit (Homo sapiens, UniProt P62136); assay: PP1 phosphatase inhibitors, dose response, biochemical, fluorescence (AID 2403);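 also: phosphatase turnover of OMFP into fluorescent 3-O-methylfluorescein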
# Chain of Serine/threonine-protein phosphatase PP1-alpha catalytic subunit (P62136 whole entry): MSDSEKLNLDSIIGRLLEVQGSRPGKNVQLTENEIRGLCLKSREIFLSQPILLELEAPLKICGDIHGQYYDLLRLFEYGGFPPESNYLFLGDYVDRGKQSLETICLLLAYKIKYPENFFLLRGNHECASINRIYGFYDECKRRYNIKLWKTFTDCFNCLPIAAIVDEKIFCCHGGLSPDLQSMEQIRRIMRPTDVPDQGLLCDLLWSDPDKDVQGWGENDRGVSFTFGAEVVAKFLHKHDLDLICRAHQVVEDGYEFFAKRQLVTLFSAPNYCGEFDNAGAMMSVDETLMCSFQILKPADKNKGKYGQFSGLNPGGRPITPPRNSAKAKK
# Protein Rev = Protein Rev (Human immunodeficiency virus type 1 group M subtype B (isolate WMJ22)(HIV-1), UniProt P05866); assay: HIV-1 Rev-RRE RNA binding disruptors, dose response, biochemical, protein-RNA interaction (AID 842); set-up: species or system Human immunodeficiency virus 1
# Chain of Protein Rev (P05866 whole entry): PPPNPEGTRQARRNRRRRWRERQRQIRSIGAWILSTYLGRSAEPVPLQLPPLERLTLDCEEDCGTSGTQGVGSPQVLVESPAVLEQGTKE
# HT-1080 = assay: cytotoxicity in HT1080 fibrosarcoma cells, cell-based, fluorescence readout (AID 620); assay type: functional; settings: Homo sapiens
# [10] = molecular target: T1, Luciferin 4-monooxygenase (Photinus pyralis, UniProt P08659); assay: firefly luciferase enzyme inhibitors, dose response, biochemical, luminescence (AID 1891)
# T1 sequence (P08659 whole entry): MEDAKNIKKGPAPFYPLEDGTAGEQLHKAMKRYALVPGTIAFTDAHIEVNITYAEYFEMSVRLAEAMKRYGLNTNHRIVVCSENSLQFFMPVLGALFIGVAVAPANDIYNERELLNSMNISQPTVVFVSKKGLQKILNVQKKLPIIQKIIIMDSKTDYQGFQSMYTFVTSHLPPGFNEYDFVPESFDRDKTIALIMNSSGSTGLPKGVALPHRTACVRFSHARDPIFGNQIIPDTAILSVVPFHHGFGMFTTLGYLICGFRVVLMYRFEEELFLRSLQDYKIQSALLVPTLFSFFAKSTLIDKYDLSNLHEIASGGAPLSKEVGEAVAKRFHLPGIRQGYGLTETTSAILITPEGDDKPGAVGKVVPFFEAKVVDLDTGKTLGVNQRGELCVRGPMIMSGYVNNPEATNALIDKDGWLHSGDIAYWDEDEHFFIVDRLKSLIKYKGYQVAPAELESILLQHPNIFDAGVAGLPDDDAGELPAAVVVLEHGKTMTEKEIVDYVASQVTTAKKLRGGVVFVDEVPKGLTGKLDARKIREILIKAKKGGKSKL
# [11] = inhibitors of SNCA 5'UTR-driven reporter translation, confirmation, H4 neuroglioma cells, luminescence (AID 1988); assay type: functional, cell-based
# [12] = inhibitors of firefly luciferase expression or activity, dose response, H4 neuroglioma cells, luminescence (AID 1990); assay type: functional, cell-based
# [13] = Luminescence Cell-Based Dose Response HTS to Identify Inhibitors of 5'UTR Stem-Loop Driven Prion Protein mRNA Translation in H4 Neuroglioblastoma Cells. [Related pubchem assays: 1827 (Project Summary), 1813 (Primary HTS)]; assay type: functional
# cells = assay type: functional, cell-based
# [14] = molecular target: T2, Heat shock factor protein 1 (Mus musculus, UniProt P38532); assay: inhibition of MG132-induced HSE-luciferase signal, confirmation, cell-based, NIH3T3, luminescence, dose retest (AID 2382); assay type: functional;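 also: NIH3T3 fibroblasts with HSF1-driven luciferase reporter stressed by proteasome inhibitor MG132; luminescence from HSF1-driven luciferase expression after 8 hours of MG132 stress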
# T2 sequence (P38532 whole entry): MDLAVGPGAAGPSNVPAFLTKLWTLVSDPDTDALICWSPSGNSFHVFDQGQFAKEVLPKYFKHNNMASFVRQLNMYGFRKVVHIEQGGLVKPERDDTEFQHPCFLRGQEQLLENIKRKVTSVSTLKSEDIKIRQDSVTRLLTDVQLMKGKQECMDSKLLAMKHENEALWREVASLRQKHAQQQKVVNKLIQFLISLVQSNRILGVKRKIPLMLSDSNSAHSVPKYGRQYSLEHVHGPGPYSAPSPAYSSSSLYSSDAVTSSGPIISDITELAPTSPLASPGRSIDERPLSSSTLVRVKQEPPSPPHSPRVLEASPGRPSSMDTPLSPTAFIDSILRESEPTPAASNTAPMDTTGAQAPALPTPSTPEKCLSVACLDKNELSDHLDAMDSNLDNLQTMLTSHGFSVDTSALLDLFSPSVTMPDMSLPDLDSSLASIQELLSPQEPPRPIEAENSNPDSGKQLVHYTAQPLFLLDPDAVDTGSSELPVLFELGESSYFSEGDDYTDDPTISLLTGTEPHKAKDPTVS
# [15] = molecular target: T1, Luciferin 4-monooxygenase; assay: Counter Screen for Luciferase-based Assay Positives. [Related pubchem assays: 620, 618, 411 ]
# [16] = molecular target: T3, Microphthalmia-associated transcription factor (Homo sapiens, UniProt O75030); assay: TRPM1 promoter luciferase signal decrease, dose response, MITF inhibitor project, cell-based, SK-MEL-5, cherry-picked, set 3 (AID 493073); assay type: functional
# T3 sequence (O75030 whole entry): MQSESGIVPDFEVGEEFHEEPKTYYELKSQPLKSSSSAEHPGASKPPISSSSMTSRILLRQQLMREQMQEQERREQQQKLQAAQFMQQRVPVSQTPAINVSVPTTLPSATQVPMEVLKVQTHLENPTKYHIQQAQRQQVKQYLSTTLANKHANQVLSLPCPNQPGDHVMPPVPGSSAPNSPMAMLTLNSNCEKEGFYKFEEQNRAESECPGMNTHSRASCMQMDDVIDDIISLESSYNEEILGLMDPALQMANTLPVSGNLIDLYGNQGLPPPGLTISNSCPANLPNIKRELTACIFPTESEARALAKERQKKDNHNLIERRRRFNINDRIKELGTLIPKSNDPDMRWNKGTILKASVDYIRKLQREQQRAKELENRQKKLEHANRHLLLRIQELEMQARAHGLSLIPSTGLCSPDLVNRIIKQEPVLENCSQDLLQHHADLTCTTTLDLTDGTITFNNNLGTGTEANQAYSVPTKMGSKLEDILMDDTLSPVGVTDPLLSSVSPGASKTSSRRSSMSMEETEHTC
# A-375 = assay: A375 melanoma cell viability reduction, dose response, counter-screen for MITF modulator project, cherry-pick samples, set 2 (AID 540335); assay type: functional, cell-based; settings: Homo sapiens
# [17] = Luminescence Cell-Based Dose Confirmation HTS to Identify Inhibitors of Platelet Dense Granule Release. [Related pubchem assays: 1663 (Primary HTS), 1678 (Summary of Project)]; assay type: functional
# [18] = inhibitors of SNCA 5'UTR-driven translation, confirmation, luminescence, H4 neuroglioblastoma cells, dose confirmation (AID 2454); assay type: functional, cell-based;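 also: H4 neuroglioblastoma cells carrying an alpha-synuclein 5'UTR luciferase reporter; potency for inhibition of the luciferase signal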
# [19] = growth suppression of PTEN-null colon cells, dose response, cell-based, HCT116 PTEN knockout (AID 1047); assay type: functional;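 also: HCT116 colon tumor cells with PTEN knocked out; cells exposed to compound for 60 hours before readout; potency for loss of cell viability measured by luminescence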
# [20] = growth suppression of beta-catenin-knockout colon cells, dose response, cell-based, HCT116, human colon tumor (AID 1045); assay type: functional;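 also: HCT116 colon tumor cells with beta catenin knocked out; cells exposed to compound for 60 hours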
# [21] = molecular target: T4, Alkaline phosphatase, tissue-nonspecific isozyme (Homo sapiens, UniProt P05186)
# T4 sequence (P05186 whole entry): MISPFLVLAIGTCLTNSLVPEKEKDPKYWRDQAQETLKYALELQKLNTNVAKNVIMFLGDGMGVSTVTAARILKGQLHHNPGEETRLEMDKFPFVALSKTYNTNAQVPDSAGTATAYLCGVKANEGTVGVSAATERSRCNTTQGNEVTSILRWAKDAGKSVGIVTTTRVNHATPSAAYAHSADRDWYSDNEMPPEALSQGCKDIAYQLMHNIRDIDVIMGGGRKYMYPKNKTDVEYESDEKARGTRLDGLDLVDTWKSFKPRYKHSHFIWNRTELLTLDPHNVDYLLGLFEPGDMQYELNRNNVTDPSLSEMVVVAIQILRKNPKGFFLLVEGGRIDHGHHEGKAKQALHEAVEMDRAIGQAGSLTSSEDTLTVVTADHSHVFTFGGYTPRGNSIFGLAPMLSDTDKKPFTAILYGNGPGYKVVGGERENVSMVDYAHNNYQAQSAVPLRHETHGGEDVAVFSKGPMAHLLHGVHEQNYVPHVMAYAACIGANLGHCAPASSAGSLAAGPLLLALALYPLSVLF
# HEK293 [22] = assay: Cytotoxicity assay in HEK293 cells. [Related pubchem assays (depositor defined):AID1266, AID1269, AID1270, AID1271, AID1280, AID1281, AID1282, AID1283, AID1287, AID1289, AID1290, AID1291, AID1292, AID1293, AID1294, AID1295, AID1299, AID1302, AID1364, AID1365, AID1366, AID1367, AID1369, AID1370, AID1371, AID1372, AID1373, AID1374, AID1375, AID1384 …; assay type: functional, cell-based; settings: Homo sapiens
# [23] = molecular target: T1, Luciferin 4-monooxygenase; assay: In vitro luciferase assay using purified luciferase. [Related pubchem assays: 1299, 1270, 1295, 1375, 1287, 1281, 1293, 1291, 1289, 1280, 465, 1364, 1282, 1372, 1365, 1370, 1367, 1366, 1266, 1373, 1292, 1290, 1302, 1371, 1283, 1271, 1294, 1374, 1368, 1369 ]
# HEK293 [24] = assay: TNF Induced NF-kB Luciferase in 293-NF-kB-Luc Stable Cells. [Related pubchem assays: 1266, 1299, 1269, 1373, 1292, 1290, 1302, 1371, 1283, 1270, 1295, 1271, 1375, 1294, 1374, 1281, 1293, 1291, 1289, 1280, 465, 1368, 1364, 1282, 1372, 1365, 1369, 1370, 1367, 1366 ]; assay type: functional, cell-based; settings: Homo sapiens
# HEK293 [25] = assay: PMA/Ionomycin induced NF-kB luciferase assay in 293- NF-kB-Luc stable cells. [Related pubchem assays: 1299, 1270, 1295, 1375, 1287, 1281, 1293, 1291, 1289, 1280, 465, 1364, 1282, 1372, 1365, 1370, 1367, 1366, 1269, 1373, 1292, 1290, 1302, 1371, 1283, 1271, 1294, 1374, 1368, 1369 ]; assay type: functional, cell-based; settings: Homo sapiens
# HEK293 [26] = assay: PMA/Ionomycin-induced IL-8 production in HEK293- NF-kB-Luc stable cells. [Related pubchem assays: 1299, 1295, 1375, 1287, 1281, 1293, 1291, 1289, 1280, 465, 1364, 1282, 1372, 1365, 1367, 1366, 1266, 1269, 1373, 1292, 1290, 1302, 1371, 1283, 1271, 1294, 1374, 1368, 1369 ]; assay type: functional, cell-based; settings: Homo sapiens
# Chain of DNA dC->dU-editing enzyme APOBEC-3G (Q9HC16 whole entry): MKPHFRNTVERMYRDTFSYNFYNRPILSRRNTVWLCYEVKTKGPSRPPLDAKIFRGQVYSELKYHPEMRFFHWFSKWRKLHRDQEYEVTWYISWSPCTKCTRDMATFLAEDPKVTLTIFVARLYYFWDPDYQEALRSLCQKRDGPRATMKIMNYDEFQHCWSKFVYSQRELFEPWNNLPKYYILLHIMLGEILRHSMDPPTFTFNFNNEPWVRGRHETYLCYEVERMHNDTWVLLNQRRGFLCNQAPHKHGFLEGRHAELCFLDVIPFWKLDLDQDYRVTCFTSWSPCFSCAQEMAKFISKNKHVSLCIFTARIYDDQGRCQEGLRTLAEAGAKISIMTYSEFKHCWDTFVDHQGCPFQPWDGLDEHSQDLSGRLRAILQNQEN
smiles,measurement,setting,value
FC(F)(F)c1cccc(C[n+]2c3n(c4ccc(C(F)(F)F)cc42)CCCCC3)c1,IC50,[1],3.21 µM (active)
same,IC50,[2],19.7 µM (not active)
same,IC50,[3],2.17 µM (active)
same,IC50,[4],13 µM (not active)
CCOC(=O)c1oc2c(C)c(O)ccc2c(=O)c1-c1nncn1-c1ccccc1,EC50,[5],> 50 µM (not active)
CCOc1ccc(NC(S)=NN=C(S)Nc2cccc(C(F)(F)F)c2)cc1,EC50,Streptococcus,> 150 µM (not active)
same,EC50,[6],24.4 µM (active)
same,IC50,HEK293 [7],> 35.4 µM (not active)
O=C(O)C1C2CCC(O2)C1C(=O)NC1CCCCC1 (stereo unspecified),IC50,[8],3.03 µM (active)
same,IC50,[9],3.7 µM (active)
CCOC(=O)c1c(C)n(C)c2ccc(O)c(CN(C)C)c12,IC50,Protein Rev,> 79.4 µM (not active)
O=C(/C=C\Nc1ccc2c(c1)OCO2)c1ccccn1,EC50,HT-1080,> 50 µM (not active)
same,EC50,[10],0.634 µM (active)
same,EC50,[11],0.234 µM (active)
same,EC50,[12],0.649 µM (active)
same,EC50,[13],< 0.1 µM (active)
same,EC50,cells,> 12 µM (inconclusive)
same,EC50,[14],4.62 µM (active)
same,EC50,[15],23.4 µM (active)
same,AC50,[16],2.08 µM (active)
same,AC50,A-375,41 µM (active)
same,EC50,[17],3.3 µM (active)
same,EC50,[18],0.874 µM (active)
Cn1c(N/N=C2\CCCc3ccccc32)nc2c1c(=O)n(Cc1ccc(F)cc1)c(=O)n2C,EC50,[19],9.86 µM (active)
same,EC50,[20],10.2 µM (active)
same,EC50,[21],18.8 µM (active)
CN(C)c1ncnc2c1ncn2[C@@H]1OC(CO)C(O)C1O (stereo partly specified),EC50,HEK293 [22],12.2 µM (inactive)
same,EC50,[23],> 8 µM (not active)
same,EC50,HEK293 [24],> 8 µM (not active)
same,EC50,HEK293 [25],1.85 µM (active)
same,EC50,HEK293 [26],> 8 µM (not active)
